pIC50: −log10 of the molar value. Several values for one entry are separate records, joined by “and”; a condition that tells them apart may be missing. Identical values can stand only once.
How the values were obtained:
[1] = biological target: EGFR (human) (UniProt P00533); settings: a431
[2] = biological target: EGFR (human) (UniProt P00533)

EGFR (human), sequence (P00533 whole entry, looked up): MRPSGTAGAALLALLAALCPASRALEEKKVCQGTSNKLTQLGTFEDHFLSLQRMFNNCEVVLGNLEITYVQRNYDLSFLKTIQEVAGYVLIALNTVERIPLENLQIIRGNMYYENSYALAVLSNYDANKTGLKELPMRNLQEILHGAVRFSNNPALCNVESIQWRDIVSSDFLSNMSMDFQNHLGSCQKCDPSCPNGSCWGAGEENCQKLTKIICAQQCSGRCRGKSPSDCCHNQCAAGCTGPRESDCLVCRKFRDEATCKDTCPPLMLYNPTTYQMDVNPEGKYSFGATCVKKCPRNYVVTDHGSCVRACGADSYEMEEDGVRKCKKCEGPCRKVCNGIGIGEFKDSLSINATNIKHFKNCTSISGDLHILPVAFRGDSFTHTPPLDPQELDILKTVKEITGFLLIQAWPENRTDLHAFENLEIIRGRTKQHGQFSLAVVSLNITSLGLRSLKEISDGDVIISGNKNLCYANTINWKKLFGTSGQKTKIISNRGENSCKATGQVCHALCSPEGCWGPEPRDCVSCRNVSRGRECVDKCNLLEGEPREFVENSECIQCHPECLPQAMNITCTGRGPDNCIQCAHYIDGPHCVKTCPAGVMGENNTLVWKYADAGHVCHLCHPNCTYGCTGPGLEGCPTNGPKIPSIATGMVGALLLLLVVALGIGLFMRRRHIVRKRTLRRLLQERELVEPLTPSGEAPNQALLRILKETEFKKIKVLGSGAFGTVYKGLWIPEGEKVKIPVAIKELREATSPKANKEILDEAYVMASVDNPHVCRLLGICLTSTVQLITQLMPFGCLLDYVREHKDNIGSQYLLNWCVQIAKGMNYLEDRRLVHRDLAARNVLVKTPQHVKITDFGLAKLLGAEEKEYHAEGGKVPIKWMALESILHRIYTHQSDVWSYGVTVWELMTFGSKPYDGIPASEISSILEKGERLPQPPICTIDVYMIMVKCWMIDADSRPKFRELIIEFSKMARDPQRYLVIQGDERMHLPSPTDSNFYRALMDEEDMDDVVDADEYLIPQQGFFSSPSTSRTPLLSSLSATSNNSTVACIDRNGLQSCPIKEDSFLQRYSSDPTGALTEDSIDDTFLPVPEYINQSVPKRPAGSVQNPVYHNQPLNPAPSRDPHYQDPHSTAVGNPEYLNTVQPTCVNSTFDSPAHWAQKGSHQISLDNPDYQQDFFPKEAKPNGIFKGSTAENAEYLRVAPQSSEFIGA

Structure (SMILES) | pIC50 [1] | pIC50 [2]
O=C(C1CC1)N1CCN(CC(O)Cn2ccc(-c3ccc4ncnc(Nc5ccc(OCc6cccc(F)c6)c(Cl)c5)c4c3)c2)CC1 (configuration not stated) | 5.96 | 6.71
CN1CCN(CCn2ccc(-c3ccc4ncnc(Nc5ccc(OCc6cccc(F)c6)c(Cl)c5)c4c3)c2)CC1 | 5.75 | 7.77
O[C@H](CN1CCC[C@@H]1CN1CCCC1)Cn1ccc(-c2ccc3ncnc(Nc4ccc(OCc5cccc(F)c5)c(Cl)c4)c3c2)c1 | 6.13 | 7.02
O=C(Cn1ccc(-c2ccc3ncnc(Nc4ccc(OCc5cccc(F)c5)c(Cl)c4)c3c2)c1)NC1CCS(=O)(=O)CC1 | 5.43 | 6.85
Fc1cccc(Cn2ncc3cc(Nc4ncnc5ccc(-c6ccn(CC7CN(CCN8CCOCC8)CCO7)c6)cc45)ccc32)c1 (configuration not stated) | 5.89 | 6.56
O=C1OCCc2cn(-c3ccc4ncnc(Nc5ccc(OCc6ccccn6)c(Cl)c5)c4c3)cc21 | 6.09 | 8.10
Fc1cccc(COc2ccc(Nc3ncnc4ccc(-c5ccn(C[C@H]6CN7CCC[C@@H]7CO6)c5)cc34)cc2Cl)c1 | 5.88 | 7.13
OC(CN1CCN(Cc2ccncc2)CC1)Cn1ccc(-c2ccc3ncnc(Nc4ccc5c(cnn5Cc5cccc(F)c5)c4)c3c2)c1 (configuration not stated) | 5.38 | 6.22
COCCNCc1cn(-c2ccc3ncnc(Nc4ccc(OCc5cccc(F)c5)c(Cl)c4)c3c2)cc1C(F)(F)F | 6.32 | 7.31
O[C@@H](CN1CCOCC1)Cn1ccc(-c2ccc3ncnc(Nc4ccc5c(cnn5Cc5cccc(F)c5)c4)c3c2)c1 | 6.13 | 8.10
C[C@@H]1CN(C(=O)Cn2ccc(-c3ccc4ncnc(Nc5ccc(OCc6cccc(F)c6)c(Cl)c5)c4c3)c2)C[C@H](C)N1 | 6.11 | 7.92
OCCN1CCOC(Cn2ccc(-c3ccc4ncnc(Nc5ccc6c(cnn6Cc6cccc(F)c6)c5)c4c3)c2)C1 (configuration not stated) | 6.32 | 6.69
OC(CN1CCN(Cc2cccnc2)CC1)Cn1ccc(-c2ccc3ncnc(Nc4ccc5c(cnn5Cc5cccc(F)c5)c4)c3c2)c1 (configuration not stated) | 5.89 | 6.55
CS(=O)(=O)CCNC1CCN(C[C@@H](O)Cn2ccc(-c3ccc4ncnc(Nc5ccc(OCc6cccc(F)c6)c(Cl)c5)c4c3)c2)CC1 | 5.44 | 7.96
CN1CCN(CC(O)Cn2ccc(-c3ccc4ncnc(Nc5ccc6c(cnn6Cc6cccc(F)c6)c5)c4c3)c2)CC1 (configuration not stated) | 6.11 | 8.70
CNCCn1ccc(-c2ccc3ncnc(Nc4ccc(OCc5cccc(F)c5)c(Cl)c4)c3c2)c1 | 5.47 | 7.14
CC(=O)NC1CCN(C(=O)Cn2ccc(-c3ccc4ncnc(Nc5ccc(OCc6cccc(F)c6)c(Cl)c5)c4c3)c2)CC1 | 6.02 | 6.99
COCCCN1CCOC(Cn2ccc(-c3ccc4ncnc(Nc5ccc6c(cnn6Cc6cccc(F)c6)c5)c4c3)c2)C1 (configuration not stated) | 6.08 | 6.54

Structure (SMILES) | pIC50 [1] | pIC50 [2]
N[C@H]1CCCN(C(=O)Cn2ccc(-c3ccc4ncnc(Nc5ccc(OCc6cccc(F)c6)c(Cl)c5)c4c3)c2)C1 | 6.14 | 7.42
O=C(NCC1CCS(=O)(=O)CC1)c1cc(-c2ccc3ncnc(Nc4ccc(OCc5cccc(F)c5)c(Cl)c4)c3c2)c[nH]1 | 6.15 | 6.94
OC(CN1CC=CC1)Cn1ccc(-c2ccc3ncnc(Nc4ccc(OCc5cccc(F)c5)c(Cl)c4)c3c2)c1 (configuration not stated) | 6.37 | 7.66
CCN(CC)CCNCc1cccn1-c1ccc2ncnc(Nc3ccc(OCc4cccc(F)c4)c(Cl)c3)c2c1 | 6.11 | 7.65
O=C(Cn1ccc(-c2ccc3ncnc(Nc4ccc(OCc5cccc(F)c5)c(Cl)c4)c3c2)c1)N1CCN(CC2CC2)CC1 | 5.70 | 6.35
OC(CN1CCN(C2CC2)CC1)Cn1ccc(-c2ccc3ncnc(Nc4ccc(OCc5cccc(F)c5)c(Cl)c4)c3c2)c1 (configuration not stated) | 6.28 | 6.93
Fc1cccc(COc2ccc(Nc3ncnc4ccc(-c5ccn(CCNC6CC6)c5)cc34)cc2Cl)c1 | 6.13 | 6.62
CS(=O)(=O)CCNCc1ccn(-c2ccc3ncnc(Nc4ccc(OCc5cccc(F)c5)c(Cl)c4)c3c2)c1 | 6.11 | 7.30
O[C@H](CN1CCOCC1)Cn1ccc(-c2ccc3ncnc(Nc4ccc(OCc5cccc(F)c5)c(Cl)c4)c3c2)c1 | 6.29 | 7.74
OC(CN1CCN(CC2CC2)CC1)Cn1ccc(-c2ccc3ncnc(Nc4ccc(OCc5cccc(F)c5)c(Cl)c4)c3c2)c1 (configuration not stated) | 6.39 | 7.10
CCN(CC)CCNC(=O)c1cn(-c2ccc3ncnc(Nc4ccc(OCc5cccc(F)c5)c(Cl)c4)c3c2)cc1CCO | 6.17 | 8.44
CN1CCN(C(=O)c2cn(-c3ccc4ncnc(Nc5ccc(OCc6cccc(F)c6)c(Cl)c5)c4c3)cc2CCO)CC1 | 5.84 | 8.30
CC(=O)N[C@@H]1CCN(C(=O)Cn2ccc(-c3ccc4ncnc(Nc5ccc(OCc6cccc(F)c6)c(Cl)c5)c4c3)c2)C1 | 6.20 | 6.89
CS(=O)(=O)CCN1CCOC(Cn2ccc(-c3ccc4ncnc(Nc5ccc6c(cnn6Cc6cccc(F)c6)c5)c4c3)c2)C1 (configuration not stated) | 6.24 | 6.63
CS(=O)(=O)CCNCC(O)Cn1ccc(-c2ccc3ncnc(Nc4ccc5c(cnn5Cc5cccc(F)c5)c4)c3c2)c1 (configuration not stated) | 6.37 | 9.00
CCN(CC)CCNCc1ccc(-c2ccc3ncnc(Nc4ccc(OCc5cccc(F)c5)c(Cl)c4)c3c2)[nH]1 | 5.84 | 7.74
Fc1cccc(COc2ccc(Nc3ncnc4ccc(-c5ccn(CCN6CCN(CC7CC7)CC6)c5)cc34)cc2Cl)c1 | 5.82 | 7.03

Results, then the compound that gave them:

pIC50 [1] | pIC50 [2] | Structure (SMILES)
6.70 | 7.11 | COCCNC(=O)c1cn(-c2ccc3ncnc(Nc4ccc(OCc5ccccn5)c(Cl)c4)c3c2)cc1CCO
7.30 | 8.40 | Fc1cccc(COc2ccc(Nc3ncnc4ccc(-c5cc[nH]c5)cc34)cc2Cl)c1
7.05 | 6.41 | Cc1ccc(Oc2ccc(Nc3ncnc4ccc(-c5cc[nH]c5)cc34)cc2C)cn1
6.92 | 6.97 | CN1CCN(CCNC(=O)c2cn(-c3ccc4ncnc(Nc5ccc(OCc6ccccn6)c(Cl)c5)c4c3)cc2CCO)CC1
6.53 | 7.10 | O=C(Cn1ccc(-c2ccc3ncnc(Nc4ccc(OCc5cccc(F)c5)c(Cl)c4)c3c2)c1)N1CCC(N2CCCCC2)CC1
7.05 | 7.82 | O=C(c1cn(-c2ccc3ncnc(Nc4ccc(OCc5cccc(F)c5)c(Cl)c4)c3c2)cc1CCO)N1CCCC1
7.15 | 7.21 | Fc1ccc(Nc2ncnc3ccc(-n4cccc4)cc23)cc1Cl
7.30 | 7.31 | O=C(c1cn(-c2ccc3ncnc(Nc4ccc(OCc5ccccn5)c(Cl)c4)c3c2)cc1CCO)N1CCOCC1
7.00 | 8.22 | Fc1cccc(Cn2ncc3cc(Nc4ncnc5ccc(-c6ccn(CCN7CCOCC7)c6)cc45)ccc32)c1
7.05 | 8.30 | Clc1cc(Nc2ncnc3ccc(-c4ccc[nH]4)cc23)ccc1OCc1ccccn1
6.51 | 7.37 | Fc1cccc(COc2ccc(Nc3ncnc4ccc(-n5cc(CNCCCN6CCOCC6)c(C(F)(F)F)c5)cc34)cc2Cl)c1
6.41 | 8.15 | OCCc1cn(-c2ccc3ncnc(Nc4ccc(OCc5cccc(F)c5)c(Cl)c4)c3c2)cc1CN1CCCC1
6.80 | 8.10 | O=C(c1cn(-c2ccc3ncnc(Nc4ccc(OCc5cccc(F)c5)c(Cl)c4)c3c2)cc1CCO)N1CCOCC1
6.70 | 8.05 | CCN(CC)Cc1ccn(-c2ccc3ncnc(Nc4ccc(OCc5cccc(F)c5)c(Cl)c4)c3c2)c1
7.30 | 8.52 | O=C(c1cn(-c2ccc3ncnc(Nc4ccc(OCc5cccc(F)c5)c(Cl)c4)c3c2)cc1CCO)N1CCCCC1
7.40 | 7.28 | OCCn1ccc(-c2ccc3ncnc(Nc4ccc(OCc5cccc(F)c5)c(Cl)c4)c3c2)c1

pIC50 [1] | pIC50 [2] | Structure (SMILES)
6.89 | 7.22 | CN1CCN(C(=O)c2cn(-c3ccc4ncnc(Nc5ccc(OCc6ccccn6)c(Cl)c5)c4c3)cc2CCO)CC1
7.70 | 7.07 and 7.03 | Fc1cccc(COc2ccc(Nc3ncnc4ccc(-n5cc6c(c5)C(=NOCCN5CCOCC5)CC6)cc34)cc2Cl)c1
6.40 | 7.24 | OC(Cn1ccc(-c2ccc3ncnc(Nc4ccc5c(cnn5Cc5cccc(F)c5)c4)c3c2)c1)Cn1ccnn1 (configuration not stated)
8.10 | 7.60 | CCN(CC)CCNC(=O)c1cn(-c2ccc3ncnc(Nc4ccc(OCc5ccccn5)c(Cl)c4)c3c2)cc1CCO
6.62 | 6.97 | O=C(Cn1ccc(-c2ccc3ncnc(Nc4ccc(OCc5cccc(F)c5)c(Cl)c4)c3c2)c1)N1CCC(N2CCCC2)CC1
6.80 | 7.49 | CN1CCN(CCNCc2cn(-c3ccc4ncnc(Nc5ccc(OCc6cccc(F)c6)c(Cl)c5)c4c3)cc2C(F)(F)F)CC1
8.52 | 7.49 | OCCc1cn(-c2ccc3ncnc(Nc4ccc(OCc5ccccn5)c(Cl)c4)c3c2)cc1CN1CCCCC1
6.53 | 8.22 | CN1CCN(C(=O)Cn2ccc(-c3ccc4ncnc(Nc5ccc(OCc6cccc(F)c6)c(Cl)c5)c4c3)c2)CC1
6.70 | 8.10 | CCN(CC)CCNCc1ccn(-c2ccc3ncnc(Nc4ccc(OCc5cccc(F)c5)c(Cl)c4)c3c2)c1
7.40 | 8.40 | Fc1cccc(COc2ccc(Nc3ncnc4ccc(-c5ccn(CCN6CCCC6)c5)cc34)cc2Cl)c1
7.70 | 8.52 | Fc1cccc(COc2ccc(Nc3ncnc4ccc(-n5ccc(CNCCN6CCOCC6)c5)cc34)cc2Cl)c1
6.45 | 7.92 | OC(CNC1CC1)Cn1ccc(-c2ccc3ncnc(Nc4ccc5c(cnn5Cc5cccc(F)c5)c4)c3c2)c1 (configuration not stated)
6.61 | 6.59 | CS(=O)(=O)N1CCOC(Cn2ccc(-c3ccc4ncnc(Nc5ccc6c(cnn6Cc6cccc(F)c6)c5)c4c3)c2)C1 (configuration not stated)
6.49 | 7.51 | O[C@@H](CN1CCOCC1)Cn1ccc(-c2ccc3ncnc(Nc4ccc(OCc5cccc(F)c5)c(Cl)c4)c3c2)c1
6.49 | 6.58 | O=C(Cn1ccc(-c2ccc3ncnc(Nc4ccc(OCc5cccc(F)c5)c(Cl)c4)c3c2)c1)N[C@H]1CC[C@H](O)CC1

Source: the Kinase Knowledgebase extract (Sharma et al. 2016)
